Test results: patent publication US10286034B2, “Uses of bremelanotide in therapy for female sexual dysfunction” (Palatin Technologies, Inc., priority 2012, dated 2019)

Columns and labels:
[1] = Subcutaneous trials in males: vomiting and tolerability; type: in vivo, human; conditions: for subjects experiencing vomiting (mild or moderate): males
[2] = Example 1: adverse events and discontinuations during double-blind treatment; type: in vivo, human
Description: A multi-centered, placebo-controlled, randomized, parallel group trial with fixed dose levels and designed to identify appropriate doses of bremelanotide administered by subcutaneous injection in premenopausal females with FSAD and/or HSDD, under the conditions of home use, was conducted. Subjects received a single dose of placebo (subject-blinded) in-clinic followed by 4 weeks of subject-blinded placebo treatment at home (subjects self-administered treatment as needed). Subjects who continued to qualify for the trial then received 2 single in-clinic doses of randomized treatment (double-blind; approximately one week apart), followed by 12 weeks of double-blind treatment at home (subjects self-administered treatment as needed).
Randomization occurred immediately prior to the first in-clinic dose of double-blind treatment. Study drug and placebo was provided as pre-filled syringes in 0.3 mL volume, with subjects instructed on self-administration into the anterior thigh or abdomen.

CCCC[C@H](NC(C)=O)C(=O)N[C@H]1CC(=O)NCCCC[C@@H](C(=O)O)NC(=O)[C@H](Cc2c[nH]c3ccccc23)NC(=O)[C@H](CCCNC(=N)N)NC(=O)[C@@H](Cc2ccccc2)NC(=O)[C@H](Cc2c[nH]cn2)NC1=O [bremelanotide, Ac-Nle-cyclo(-Asp-His-D-Phe-Arg-Trp-Lys)-OH]
subjects experiencing vomiting (mild or moderate) ([1]; 7.5 mg dose level): 1 of 6 | subjects experiencing vomiting (mild or moderate) ([1]; 5-mg dose level): 1 of 6 | subjects experiencing vomiting (mild or moderate) ([1]; 10-mg dose level): 3 of 6 | tolerability ([1]; single subcutaneous doses of 4 and 6 mg, male subjects with ED and preexisting hypertension): improved tolerability | patients discontinued based on adverse events ([2]; 0.75 mg): 2 | patients discontinued based on preset blood pressure change criterion ([2]; 0.75 mg): 4 | Any adverse event leading to withdrawal, number of subjects ([2]; 0.75 mg SC (N = 100)): 2 | Any adverse event leading to withdrawal, percent of subjects ([2]; 0.75 mg SC (N = 100)): (2%) | Any adverse event, number of subjects ([2]; 0.75 mg SC (N = 100)): 64 | Any adverse event, percent of subjects ([2]; 0.75 mg SC (N = 100)): (64%) | Flushing leading to withdrawal, number of subjects ([2]; 0.75 mg SC (N = 100)): 0 | Flushing, number of subjects ([2]; 0.75 mg SC (N = 100)): 17 | Flushing, percent of subjects ([2]; 0.75 mg SC (N = 100)): (17%) | Headache, number of subjects ([2]; 0.75 mg SC (N = 100)): 9 | Headache, percent of subjects ([2]; 0.75 mg SC (N = 100)): (9%) | Hypertension leading to withdrawal, number of subjects ([2]; 0.75 mg SC (N = 100)): 2 | Hypertension leading to withdrawal, percent of subjects ([2]; 0.75 mg SC (N = 100)): (2%) | Injection-site pain, number of subjects ([2]; 0.75 mg SC (N = 100)): 6 | Injection-site pain, percent of subjects ([2]; 0.75 mg SC (N = 100)): (6%) | Injection-site pruritus, number of subjects ([2]; 0.75 mg SC (N = 100)): 4 | Injection-site pruritus, percent of subjects ([2]; 0.75 mg SC (N = 100)): (4%) | Nausea leading to withdrawal, number of subjects ([2]; 0.75 mg SC (N = 100)): 0 | Nausea, number of subjects ([2]; 0.75 mg SC (N = 100)): 18 | Nausea, percent of subjects ([2]; 0.75 mg SC (N = 100)): (18%) | Upper respiratory tract infection, number of subjects ([2]; 0.75 mg SC (N = 100)): 8 | Upper respiratory tract infection, percent of subjects ([2]; 0.75 mg SC (N = 100)): (8%) | Vomiting leading to withdrawal, number of subjects ([2]; 0.75 mg SC (N = 100)): 0 | patients discontinued based on adverse events ([2]; 1.25 mg): 4 | patients discontinued based on preset blood pressure change criterion ([2]; 1.25 mg): 9 | Any adverse event leading to withdrawal, number of subjects ([2]; 1.25 mg SC (N = 99)): 4 | Any adverse event leading to withdrawal, percent of subjects ([2]; 1.25 mg SC (N = 99)): (4%) | Any adverse event, number of subjects ([2]; 1.25 mg SC (N = 99)): 61 | Any adverse event, percent of subjects ([2]; 1.25 mg SC (N = 99)): (62%) | Flushing leading to withdrawal, number of subjects ([2]; 1.25 mg SC (N = 99)): 1 | Flushing leading to withdrawal, percent of subjects ([2]; 1.25 mg SC (N = 99)): (1%) | Flushing, number of subjects ([2]; 1.25 mg SC (N = 99)): 14 | Flushing, percent of subjects ([2]; 1.25 mg SC (N = 99)): (14%) | Headache, number of subjects ([2]; 1.25 mg SC (N = 99)): 9 | Headache, percent of subjects ([2]; 1.25 mg SC (N = 99)): (9%) | Hypertension leading to withdrawal, number of subjects ([2]; 1.25 mg SC (N = 99)): 0 | Injection-site pain, number of subjects ([2]; 1.25 mg SC (N = 99)): 6 | Injection-site pain, percent of subjects ([2]; 1.25 mg SC (N = 99)): (6%) | Injection-site pruritus, number of subjects ([2]; 1.25 mg SC (N = 99)): 4 | Injection-site pruritus, percent of subjects ([2]; 1.25 mg SC (N = 99)): (4%) | Nausea leading to withdrawal, number of subjects ([2]; 1.25 mg SC (N = 99)): 0 | Nausea, number of subjects ([2]; 1.25 mg SC (N = 99)): 22 | Nausea, percent of subjects ([2]; 1.25 mg SC (N = 99)): (22%) | Upper respiratory tract infection, number of subjects ([2]; 1.25 mg SC (N = 99)): 5 | Upper respiratory tract infection, percent of subjects ([2]; 1.25 mg SC (N = 99)): (5%) | Vomiting leading to withdrawal, number of subjects ([2]; 1.25 mg SC (N = 99)): 1 | Vomiting leading to withdrawal, percent of subjects ([2]; 1.25 mg SC (N = 99)): (1%) | patients discontinued based on adverse events ([2]; 1.75 mg): 8 | patients discontinued based on preset blood pressure change criterion ([2]; 1.75 mg): 7 | Any adverse event leading to withdrawal, number of subjects ([2]; 1.75 mg SC (N = 98)): 8 | Any adverse event leading to withdrawal, percent of subjects ([2]; 1.75 mg SC (N = 98)): (8%) | Any adverse event, number of subjects ([2]; 1.75 mg SC (N = 98)): 67 | Any adverse event, percent of subjects ([2]; 1.75 mg SC (N = 98)): (68%) | Flushing leading to withdrawal, number of subjects ([2]; 1.75 mg SC (N = 98)): 1 | Flushing leading to withdrawal, percent of subjects ([2]; 1.75 mg SC (N = 98)): (1%) | Flushing, number of subjects ([2]; 1.75 mg SC (N = 98)): 17 | Flushing, percent of subjects ([2]; 1.75 mg SC (N = 98)): (17%) | Headache, number of subjects ([2]; 1.75 mg SC (N = 98)): 14 | Headache, percent of subjects ([2]; 1.75 mg SC (N = 98)): (14%) | Hypertension leading to withdrawal, number of subjects ([2]; 1.75 mg SC (N = 98)): 1 | Hypertension leading to withdrawal, percent of subjects ([2]; 1.75 mg SC (N = 98)): (1%) | Injection-site pain, number of subjects ([2]; 1.75 mg SC (N = 98)): 7 | Injection-site pain, percent of subjects ([2]; 1.75 mg SC (N = 98)): (7%) | Injection-site pruritus, number of subjects ([2]; 1.75 mg SC (N = 98)): 6 | Injection-site pruritus, percent of subjects ([2]; 1.75 mg SC (N = 98)): (6%) | Nausea leading to withdrawal, number of subjects ([2]; 1.75 mg SC (N = 98)): 3 | Nausea leading to withdrawal, percent of subjects ([2]; 1.75 mg SC (N = 98)): (3%) | Nausea, number of subjects ([2]; 1.75 mg SC (N = 98)): 24 | Nausea, percent of subjects ([2]; 1.75 mg SC (N = 98)): (24%) | Upper respiratory tract infection, number of subjects ([2]; 1.75 mg SC (N = 98)): 4 | Upper respiratory tract infection, percent of subjects ([2]; 1.75 mg SC (N = 98)): (4%) | Vomiting leading to withdrawal, number of subjects ([2]; 1.75 mg SC (N = 98)): 3 | Vomiting leading to withdrawal, percent of subjects ([2]; 1.75 mg SC (N = 98)): (3%) | subjects discontinuing due to an adverse event ([2]; 1.75 mg subcutaneous dose): 8% | tolerability during the trial ([2]; 0.75-1.75 mg SC): well-tolerated | serious adverse events considered related to treatment ([2]; of 7 serious adverse events): none
